According to patent US20240002343A1, “COMPOUNDS HAVING INHIBITORY EFFECT ON MITOCHONDRIAL HYPERFISSION” (KYUSHU UNIVERSITY, NATIONAL UNIVERSITY CORPORATION, priority 2020, published 2024):

Legend:
Drp1-filamin complex = conditions: Non-Patent Document 6; cited from earlier work
[1] = test system: cardiomyocytes derived from neonatal rats; assay: Inhibitory effect on aging of cardiomyocytes under hypoxic stimulation (β-galactosidase, SPiDER-βGAL); format: cell-based, rat; conditions: 1 μM, 1 hour preincubation, 16 hours normoxia (20%) or hypoxia (1%); compared with cilnidipine
Protocol: The compounds prepared in Examples were investigated for effects on the aging of cardiomyocytes. The aging of cardiomyocytes was evaluated by detecting β-galactosidase, one of the aging markers.
Specifically, DOJINDO's cell aging detection kit-SPiDER-βGAL was used for detection according to the attached protocol. Each compound was added to the culture medium of cardiomyocytes derived from neonatal rats at a final concentration of 1 μM and the medium were incubated for 1 hour. Then, the medium was cultured for 16 hours under normoxia (20%) or hypoxia (1%). Subsequently, Bafilomycin A1, which inhibits endogenous β-galactosidase activity, was added and the medium was incubated for 1 hour. After washing the cells with a medium, SPiDER-βGAL was added thereto and the mixture was incubated for 30 minutes. After removing the supernatant, HEPES buffer (pH 7.4) was added thereto and the cells were observed under a fluorescence microscope to detect β-galactosidase in the aging cells. For comparison, a group involving cilnidipine as a positive control and a group involving dimethylsulfoxide (DMSO) as a negative control were prepared.
Arrowheads indicate the β-galactosidase-positive cells.

[2] = test system: cardiomyocytes derived from neonatal rats; assay: Inhibitory effect on mitochondrial hyperfission by hypoxic stimulation; format: cell-based, rat; conditions: 0.3 μM, 1 hour preincubation, 18 hours hypoxic environment; compared with cilnidipine positive control
Protocol: A system for evaluating quantitatively the degree of mitochondrial division in cells was constructed. Specifically, cardiomyocytes derived from neonatal rats were cultured under either normoxia (20%) or hypoxia (1%) for 16 hours. Subsequently, the cells were stained with a fluorescent dye (MitoTracker Green FM, Thermo Fisher Scientific) that selectively stains mitochondria. Then, the mitochondria were observed under a fluorescence microscope, and the mitochondrial morphology was quantitatively measured by image analysis.
FIGS. 2(a) and (b) are each a micrograph and an image explaining a method for quantitatively measuring mitochondrial morphology by image analysis. FIG. 2(a) is a representative fluorescence micrograph showing the general morphology of mitochondria. FIG. 2(b) is an image obtained by filtering the photograph in FIG. 2(a) and extracting the shape of the mitochondria. Image analysis was performed based on the image in FIG. 2(b) to quantify the lengths of mitochondrial fragments. For the quantification, in order to classify the mitochondria into vesicle-shaped, intermediate-shaped and tube-shaped, <3.5 μm is set for vesicle-shaped, 3.6 μm<length<4.2 μm is set for intermediate-shaped, and >4.2 μm is set for tube-shaped, respectively, as thresholds.
The system for evaluation constructed in Test Example 1 was used to evaluate the mitochondrial hyperfission inhibitory effects of the compounds prepared in Examples.
Specifically, at first, each compound was added to the culture medium of cardiomyocytes derived from neonatal rats at a final concentration of 0.3 μM, and the mixture was incubated for 1 hour.
Then, each cells were cultured for an additional 18 hours in a hypoxic environment. Subsequently, mitochondria were stained with MitoTracker Green FM (Thermo Fisher Scientific) or anti-pyruvate dehydrogenase antibody (Abcam) and observed under a fluorescence microscope to quantitatively measure the morphology of mitochondria. For comparison, a group involving cilnidipine as a positive control and a group involving dimethyl sulfoxide (DMSO) as a negative control were also prepared.

calcium channel = assay: Calcium antagonism (KCl-induced calcium ion influx, Fura 2-AM); format: cell-based, mouse; conditions: Neuro-2a cells; 0, 1, 10, 100 and 1,000 nM, 30 minutes; potassium chloride 60 mM
Protocol: The compounds prepared in Examples were evaluated for calcium channel blocking activity. Specifically, at first, Neuro-2a cells, mouse-derived neuroblastoma cell line, were cultured in a serum-free medium, and Fura 2-AM (Dojindo Laboratories) that is a calcium ion probe, was added to the medium so that it was taken up by the cells.
Subsequently, after replacing the medium with HEPES buffer (pH 7.4), each compound was each added at final concentrations of 0, 1, 10, 100 and 1,000 nM and the mixtures were incubated for 30 minutes.
Then, depolarization stimulation was applied with potassium chloride (final concentration 60 mM), and the influx of calcium ions into the cells was measured by fluorescence microscopy.
FIGS. 4(a) and (b) are graphs that illustrate the results of measurement of increase in intracellular calcium ion concentration induced by potassium chloride stimulation. Δratio on the vertical axis is expressed by formula (F1) below and represents a value that reflects the intracellular calcium ion concentration.
A ratio=(fluorescence intensity at fluorescence wavelength of 510 nm against an excitation wavelength of 340 nm)/(fluorescence intensity at fluorescence wavelength of 510 nm against an excitation wavelength of 380 nm) Formula (F1)

| SMILES | inhibition of formation of the Drp1-filamin complex (Drp1-filamin complex) | suppressive effect on aging (β-galactosidase-positive cells) [1] | mitochondrial hyperfission inhibitory effect (percentage of cells with vesicle-shaped mitochondria) [2] | Ca2+ antagonism (increase in intracellular calcium ion concentration induced by potassium chloride stimulation) (calcium channel) |
| --- | --- | --- | --- | --- |
| COCCOC(=O)C1=C(C)NC(C)=C(C(=O)OC/C=C/c2ccccc2)C1c1cccc([N+](=O)[O-])c1 (stereo not drawn) [Cilnidipine] | inhibit formation of the Drp1-filamin complex | – | – | – |
| COCCOC(=O)C1=C(C)NC(C)=C(C(=O)O)C1c1ccccc1[N+](=O)[O-] (stereo not drawn) [Compound 2, 5-((2-methoxyethoxy)carbonyl)-2,6-dimethyl-4-(2-nitrophenyl)-1,4-dihydropyridine-3-carboxylic acid] | – | suppressive effect on aging that is the same as cilnidipine | the same as or more effect of cilnidipine | no Ca2+ antagonism |
| COCCOC(=O)c1c(C)nc(C)c(C(=O)NCCCc2ccncc2)c1-c1ccccc1[N+](=O)[O-] [Compound 4f, 2-Methoxyethyl 2,6-dimethyl-4-(2-nitrophenyl)-5-((3-(pyridin-4-yl)propyl)carbamoyl)nicotinate] | – | suppressive effect on aging that is the same as cilnidipine | the same as or more effect of cilnidipine | no Ca2+ antagonism |
| COCCOC(=O)c1c(C)nc(C)c(C(=O)O)c1-c1ccccc1[N+](=O)[O-] [Compound 6, 5-((2-methoxyethoxy)carbonyl)-2,6-dimethyl-4-(2-nitrophenyl)nicotinic acid] | – | – | the same as or more effect of cilnidipine | no Ca2+ antagonism |
| COCCOC(=O)c1c(C)nc(C)c2c(=O)n(C)c3ccccc3c12 [Compound 10a, 2-Methoxyethyl 2,4,6-trimethyl-5-oxo-5,6-dihydrobenzo[c][2,7]naphthyridine-1-carboxylate] | – | – | the same as or more effect of cilnidipine | – |
| COCCOC(=O)c1c(C)nc(C)c2c(=O)n(Cc3ccccc3)c3ccccc3c12 [Compound 10b, 2-Methoxyethyl 6-benzyl-2,4-dimethyl-5-oxo-5,6-dihydrobenzo[c][2,7]naphthyridine-1-carboxylate] | – | – | the same as or more effect of cilnidipine | – |
| Cc1nc(C)c2c(=O)[nH]c3ccccc3c2c1C(=O)O [Compound 14, 2,4-dimethyl-5-oxo-5,6-dihydrobenzo[c][2,7]naphthyridine-1-carboxylic acid] | – | – | the same as or more effect of cilnidipine | no Ca2+ antagonism |
| COCCOC(=O)C1=C(C)NC(C)=C(C(=O)Nc2ccc(OC)cc2)C1c1ccccc1 (stereo not drawn) [Compound 16b, 2-Methoxyethyl 5-((4-methoxyphenyl)carbamoyl)-2,6-dimethyl-4-phenyl-1,4-dihydropyridine-3-carboxylate] | – | – | the same as or more effect of cilnidipine | no Ca2+ antagonism |
| COCCOC(=O)c1c(C)nc(C)c2c(=O)n(-c3cccc(OC)c3)c3ccccc3c12 [Compound 17a, 2-Methoxyethyl 6-(3-methoxyphenyl)-2,4-dimethyl-5-oxo-5,6-dihydrobenzo[c][2,7]naphthyridine-1-carboxylate] | – | – | the same as or more effect of cilnidipine | no Ca2+ antagonism |
| COCCOC(=O)c1c(C)nc(C)c2c(=O)n(-c3cccc(C(=O)OC(C)(C)C)c3)c3ccccc3c12 [Compound 17c, 2-Methoxyethyl 6-(3-(tert-butoxycarbonyl)phenyl)-2,4-dimethyl-5-oxo-5,6-dihydrobenzo[c][2,7]naphthyridine-1-carboxylate] | – | – | the same as or more effect of cilnidipine | – |
| COCCOC(=O)C1=C(C)NC(C)=C(C(=O)OCCC#N)C1c1cccc([N+](=O)[O-])c1 (stereo not drawn) [Compound 18, 3-(2-cyanoethyl) 5-(2-methoxyethyl) 2,6-dimethyl-4-(3-nitrophenyl)-1,4-dihydropyridine-3,5-dicarboxylate] | – | – | the same as or more effect of cilnidipine | no Ca2+ antagonism |
| COCCOC(=O)C1=C(C)NC(C)=C(C(=O)NCc2ccccc2)C1c1cccc([N+](=O)[O-])c1 (stereo not drawn) [Compound 20a, 2-Methoxyethyl 5-(benzylcarbamoyl)-2,6-dimethyl-4-(3-nitrophenyl)-1,4-dihydropyridine-3-carboxylate] | – | – | the same as or more effect of cilnidipine | no Ca2+ antagonism |
| COCCOC(=O)c1c(C)nc(C)c(C(=O)Nc2cccc(C(=O)OC(C)(C)C)c2)c1-c1ccccc1 [Compound 24, 2-Methoxyethoxy 5-((3-(tert-butoxycarbonylcarbonyl)phenyl)carbamoyl)-2,6-dimethyl-4-phenylnicotinate] | – | – | the same as or more effect of cilnidipine | – |
| COCCOC(=O)c1c(C)nc(C)c(C(=O)Nc2cccc(C(=O)O)c2)c1-c1ccccc1 [Compound 25, 3-(5-((2-methoxyethoxy)carbonyl)-2,6-dimethyl-4-phenylnicotinamido)benzoic acid] | – | – | the same as or more effect of cilnidipine | – |
| COCCOC(=O)c1c(C)nc(C)c(C(=O)Nc2cccc(C(=O)OC)c2)c1-c1ccccc1 [Compound 26, 2-Methoxyethoxy 5-((3-(methoxycarbonyl)phenyl)carbamoyl)-2,6-dimethyl-4-phenylnicotinate] | – | – | the same as or more effect of cilnidipine | – |
| COCCOC(=O)C1=C(C)NC(C)=C(C(=O)Nc2cccc(C(=O)OCCC#N)c2)C1c1ccccc1 (stereo not drawn) [Compound 30, 2-Methoxyethyl 5-((3-((2-cyanoethoxy)carbonyl)phenyl)carbamoyl)-2,6-dimethyl-4-phenyl-1,4-dihydropyridine-3-carboxylate] | – | – | the same as or more effect of cilnidipine | – |
| COCCOC(=O)C1=C(C)NC(C)=C(C(=O)Nc2cccc(C(=O)O)c2)C1c1ccccc1 (stereo not drawn) [Compound 31, 3-(5-((2-methoxyethoxy)carbonyl)-2,6-dimethyl-4-phenyl-1,4-dihydropyridine-3-carboxamido)benzoic acid] | – | – | the same as or more effect of cilnidipine | – |
